Laboratory results as given in patent EP1353942B1, “PEPTIDE INHIBITORS OF HIV ENTRY” (WHITEHEAD INSTITUTE FOR BIOMEDICAL RESEARCH, priority 2000, dated 2010).
Where two headings read alike, the source gives them in different places.

Legend:
[1] = Sedimentation equilibrium (analytical ultracentrifugation); assay type: physicochemical; details: for Mobs/Mcalc: 20 µM peptide solutions in PBS, 3.0 being a discrete trimer
Experimental: Sedimentation Equilibrium. All measurements were recorded on a Beckman XL-A analytical ultracentrifuge equipped with an An-60 Ti rotor. Lyophilized peptide was resuspended in water, and the peptide concentration was determined (Edelhoch, 1967). The solution was diluted to 100-200 µM and then dialized overnight against PBS. Following dialysis, the concentration was redetermined and the appropriate dilutions were made, using the dialysis buffer. The samples were centrifuged at speeds ranging from 19,000 to 25,000 RPM.
(§1) The following Table summarizes the biophysical data and inhibitory activity for the chimeric coiled coil N peptides. The first column (θ222nm) is circular dichroism data, representing the helicity of each peptide. The lower the number, the more helical. The second column is the melting temperature and signifies the temperature at which half of the peptide is unfolded. The next column (Mobs/Mcalc) signifies the oligomeric state of the peptide, with 3.0 being a discrete trimer. The final column is the concentration at which each peptide is at half maximal inhibitory potency for viral infection. Table 1. Biophysical data and HIV-1 inhibitory activity
(§2) The second column is the ellipticity at 222 nm of a 20 µM solution of peptide in PBS. The third column lists the midpoint of thermal denaturation of 10 µM solutions of peptide in PBS.

[2] = system: HIV-1
Experimental: HIV Infectivity Assay. Inhibitory activity was determined in an HIV luciferase assay (Chen et al., 1994). Specifically, virus was made by cotransfecting 293T cells with an HIV-1 genome containing a frame-shift mutation in env and luciferase replacing the nef gene (NL43LucR-E-) along with pCMVHXB2, an expression vector with the HXB2 gp160 gene. The resultant virus is only viable for one round of infection since its genome lacks the envelope gene. The cellular debris was removed by low-speed centrifugation. The remaining viral supernatant was used to infect HOS-CD4/Fusion cells (N. Landau, National Institutes of Health AIDS Reagent Program) in the presence of the potentially inhibitory peptides. Two days post-infection, the cells were lysed and luciferase activity was monitored on a Wallac AutoLumat LB953 luminometer (Gaithersburg, MD). IC50s (the peptide concentration at which half of the viral infection is inhibited) were calculated by fitting the data to a Langmuir equation [y = k/(1+[peptide]/IC50)], where y = luciferase activity and k is a scaling constant.

[3] = Thermal denaturation followed by circular dichroism at 222 nm; assay type: physicochemical
Experimental: (§3) Circular Dichroism. All CD measurements were performed on an Aviv 62 DS cirucular dichroism spectrometer. Standard scans were performed on 10 µM solutions of peptide in PBS (50 mM sodium phosphate, 150 mM sodium chloride [pH 7.4]) from 200 to 260 nm in a 1 cm pathlength cuvette with a 5 second averaging time. The mean residue ellipticity (θ) was calculated by dividing the raw signal by peptide concentration (M), pathlength (mm) and number of amino acids. Percent helicity was calculated according to Chen et al. (Biochemistry, 13, 1974, p3350). Thermal denaturation scans of 10 µM peptide solutions in PBS were recorded at 222 nm. The peptide was heated at two degree intervals starting at 4°C, with an equilibration time of 1.5 minutes and an averaging time of 60 seconds.
as §1, §2

[4] = Circular dichroism (ellipticity at 222 nm, helicity); assay type: physicochemical; details: IZN17 at 20 µM
Experimental: as §3
as §1, with “Biophysical data and HIV-1 inhibitory activity” left out

[5] = molecular target: HIV-1 gp41 (C peptide region), from HXB2 gp160 envelope on pseudotyped virus (HIV-1 (HXB2)) (UniProt P04578); assay: cell-based or functional assay

| Substance | Mobs/Mcalc [1] | oligomeric state (in words) ([1]; sedimentation equilibrium, IZN17 at 20 µM) | IC50 ([2]; concentration of peptide at which half of viral infectivity is inhibited, HOS-CD4/Fusion cells, HXB2 envelope, tentative values) [nM] | IC50 ([2]; read-out: IC50 in the viral infectivity assay, viral infectivity assay) [nM] | thermal denaturation temperature relative to IQN17 ([3]; In 2 M GuHCl) | Melting Temperature ([3]; midpoint of thermal denaturation of 10 µM solutions of peptide in PBS) [°C] | melt (thermal unfolding) ([3]; no denaturant) | helicity (in words) [4] | IC50 (nm), HIV-1 luciferase viral infectivity assay (HXB2 env pseudotyped virus on HOS-CD4/Fusin cells) [5] [nM] |
| --- | --- | --- | --- | --- | --- | --- | --- | --- | --- |
| Ac-IKKEIEAIKKEQEAIKKKIEAIEKLLQLTVWGIKQLQARIL-NH2 [IZN17] | 3.05 | discretely trimeric | 5.6 | ~5.6 | ten degrees higher | >100 | above 100 °C | helical |  |
| Ac-YGGIKKEIEAIKKEQEAIKKKIEAIEKEIVQARQLLSGIVQQQNNLLRAIEAQQH-NH2 [IZN26] | ∼2.87 |  |  |  |  |  |  |  |  |
| IZN17 (peptide) |  |  |  |  |  |  |  |  | 5.6 |
